Results as given in patent US10703764B2, “Benzopiperazine compositions as BET bromodomain inhibitors” (FORMA Therapeutics, Inc., priority 2013, dated 2020).

Key:
BRD4 BD2 = target: T1, BRD4 BD2 (Homo sapiens, UniProt O60885); test: AlphaScreen binding assay, BRD4 Bromodomain 2
T1 construct: made in house
Summary of the method: (§1)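 Compound dilution series were mixed with His-tagged BRD4 bromodomain and biotinylated tetra-acetylated H4 (1-21) peptide at pH 7.3 (BD1 and peptide at 50 nM, BD2 and peptide at 100 nM). Donor and acceptor beads were then added, and plates were equilibrated at least 1 h before reading. IC50 values were fitted with a four-parameter logistic model.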

MV4-11 cells = test: Oncology cell growth assay (3-day proliferation, CellTiter-Glo); assay type: cell-based; conditions: Homo sapiens, MV4-11, 72 h, AML cell line MV4-11, 72 hours, compounds grouped by IC50 range, read-out: MV4-11 IC50 (inhibition of proliferation, gIC50)
Summary of the method: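 MV4-11 AML cells (RPMI 1640, 10% FBS) plated at 3000 cells/well and exposed 72 h to compound at final 10 to 0.0045 μM (3-fold series). Viability read by CellTiter-Glo luminescence; gIC50 from four-parameter logistic fit between DMSO control and no-cell background.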

BRD4 BD1 = target: T2, BRD4 BD1 (Homo sapiens, UniProt O60885); test: AlphaScreen binding assay, BRD4 Bromodomain 1
T2 construct: made in house
Summary of the method: as §1

| IC50 (BRD4 BD2) [nM] | IC50 (MV4-11 cells) [nM] | IC50 (BRD4 BD1) [nM] | SMILES |
| --- | --- | --- | --- |
| 50 to 500 | 100 to 500 | 100 to 1000 | CC(=O)N1c2ccc(-c3ccc(S(C)(=O)=O)cc3)cc2N(C(=O)OC2CCOCC2)C[C@@H]1C [Example I-496] |
| 50 to 500 | 100 to 500 | 100 to 1000 | CC(=O)N1c2ccc(-c3ccc(C(=O)N4CCNCC4)cc3)cc2N(C(=O)OC2CCOCC2)C[C@@H]1C [Example I-498] |
| 50 to 500 | 100 to 500 | 100 to 1000 | CC(=O)N1c2ccc(-c3cnn(C4CC4)c3)cc2N(C(=O)Oc2ccc(F)cc2F)C[C@@H]1C [Example I-499] |
| 50 to 500 | 100 to 500 | 100 to 1000 | COc1cccc(OC(=O)N2C[C@H](C)N(C(C)=O)c3ccc(-c4cnn(C5CC5)c4)cc32)c1 [Example I-500] |
| 50 to 500 | 100 to 500 | 100 to 1000 | CC(=O)N1c2ccc(-c3cnn(C4CC4)c3)cc2N(C(=O)Oc2cccc(C#N)c2)C[C@@H]1C [Example I-501] |
| 50 to 500 | 100 to 500 | 100 to 1000 | CC(=O)N1c2ccc(-c3cnn(C4CC4)c3)cc2N(C(=O)Oc2cccc(F)c2)C[C@@H]1C [Example I-502] |
| 50 to 500 | 100 to 500 | 100 to 1000 | CC(=O)N1c2ccc(-c3cnn(C4CC4)c3)cc2N(C(=O)Oc2cc(F)ccc2F)C[C@@H]1C [Example I-503] |
| 50 to 500 | 100 to 500 | 100 to 1000 | CC(=O)N1c2ccc(-c3cnn(C4CC4)c3)cc2N(C(=O)Oc2ccc(C)cc2Cl)C[C@@H]1C [Example I-504] |
| 50 to 500 | < 100 | 100 to 1000 | COc1cc(C)ccc1OC(=O)N1C[C@H](C)N(C(C)=O)c2ccc(-c3cnn(C4CC4)c3)cc21 [Example I-506] |
| 50 to 500 | 100 to 500 | 100 to 1000 | COc1ccc(C)cc1OC(=O)N1C[C@H](C)N(C(C)=O)c2ccc(-c3cnn(C4CC4)c3)cc21 [Example I-508] |

The next lines start with the compound.

| SMILES | IC50 (BRD4 BD2) [nM] | IC50 (MV4-11 cells) [nM] | IC50 (BRD4 BD1) [nM] |
| --- | --- | --- | --- |
| CC(C)OC(=O)N1C[C@H](C)N(C(=O)C2CC2)c2ccc(-c3ccc(CS(N)(=O)=O)cc3)cc21 [Example I-476] | > 500 | > 500 | 100 to 1000 |
| CC(=O)N1c2ccc(-c3ccc(S(=O)(=O)CCN)cc3)cc2N(C(=O)OC(C)C)C[C@@H]1C [Example I-477] | < 50 | 100 to 500 | 100 to 1000 |
| CC(=O)N1c2ccc(-c3ccc(S(=O)(=O)CCO)cc3)cc2N(C(=O)OC(C)C)C[C@@H]1C [Example I-478] | 50 to 500 | 100 to 500 | 100 to 1000 |
| CC(C)OC(=O)N1C[C@H](C)N(C(=O)C2CC2)c2ccc(-c3ccc(S(=O)(=O)CCO)cc3)cc21 [Example I-479] | > 500 | > 500 | 100 to 1000 |
| CC(C)OC(=O)N1C[C@H](C)N(C(=O)C2CC2)c2ccc(-c3cn(C)nn3)cc21 [Example I-482] | > 500 | > 500 | 100 to 1000 |
| COC(=O)N1c2ccc(-c3ccc(N4CCS(=O)(=O)CC4)cc3)cc2N(C(=O)OC(C)C)C[C@@H]1C [Example I-483] | 50 to 500 | > 500 | 100 to 1000 |
| COC(=O)N1c2ccc(-c3cnc(N)cn3)cc2N(C(=O)OC(C)C)C[C@@H]1C [Example I-485] | 50 to 500 | > 500 | 100 to 1000 |
| COC(=O)N1c2ccc(-c3cn(C)nn3)cc2N(C(=O)OC(C)C)C[C@@H]1C [Example I-490] | 50 to 500 | > 500 | 100 to 1000 |
| CC(=O)N1c2ccc(-c3ccc(S(C)(=O)=O)cc3)cc2N(C(=O)OC2CCC2)C[C@@H]1C [Example I-493] | 50 to 500 | 100 to 500 | 100 to 1000 |
| CCC(C)OC(=O)N1C[C@H](C)N(C(C)=O)c2ccc(-c3ccc(S(C)(=O)=O)cc3)cc21 (stereo partly drawn) [Example I-494] | 50 to 500 | 100 to 500 | 100 to 1000 |
| CC(=O)N1c2ccc(-c3ccc(S(C)(=O)=O)cc3)cc2N(C(=O)OCC2CC2)C[C@@H]1C [Example I-495] | > 500 | 100 to 500 | 100 to 1000 |
